Assay results reported in patent US20090221559A1 (priority 2005, published 2009).
Read-outs that look alike come from different tables or passages of the source.

Tests used:
[1] = tested on: HCV replicon RNA replication in Huh-7 luc/neo (Huh-Luc) cells; assay: HCV replicon assay (stable replicon cell reporter assay, luciferase read-out); type: cell-based, HCV type 1b
Method in brief: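 Three-day compound exposure used Huh-Luc cells, which harbour an autonomously replicating genotype 1b NS3-NS5B replicon expressing luciferase and neo^R. Luciferase signal served as the replication read-out, and dose-response curves came from several concentrations per compound.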

[2] = target: T1, HCV NS5B polymerase (His-tagged, C-terminal 21 amino acid deleted NS5B, HC-J4) (Hepatitis C virus genotype 1b, UniProt O92972); assay: NS5b polymerase assay (biochemical RdRp assay, 3H-GTP incorporation, SPA beads); design: species or system HCV genotype 1b
T1 construct: The cDNA encoding NS5B amino acid 1-570 (HC-J4, genotype 1b); His tag (His6, from pET-21b) (C); made in house; host or cells: E. coli BL21 (DE3)
Method in brief: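 3H-GTP incorporation into newly made RNA was captured on SPA beads added in EDTA after 2 h at 25 °C. Compounds in DMSO met preformed enzyme–template complex (200 nM truncated His-NS5B, HC-J4 1b; biotin-oligo(rG13)/poly(rC)) for 15 min at RT, then 600 nM GTP, 5 mM MgCl2, Tris pH 7.5 started polymerization.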

[3] = Hepatitis C virus, Huh-7, 72 h, read-out: Replicon Assay EC50 (μM), Huh-Luc cells, incubation of three days, luciferase activity
[4] = NS5B Polymerase Assay IC50 (μM)
[5] = Hepatitis C virus, Huh-7, 72 h, read-out: Replicon Assay EC50, Huh-Luc cells, three days incubation, luciferase activity
[6] = NS5B Polymerase Assay IC50, 200 nM enzyme, 3H-GTP incorporation, 2 h at 25° C.
[7] = Huh-Luc cells, three days incubation, luciferase activity, read-out: Replicon Assay EC50
[8] = 200 nM enzyme, 3H-GTP incorporation, 2 h at 25° C., read-out: NS5B Polymerase Assay IC50

T1 sequence (O92972 2417-3000, looked up, stated change not applied): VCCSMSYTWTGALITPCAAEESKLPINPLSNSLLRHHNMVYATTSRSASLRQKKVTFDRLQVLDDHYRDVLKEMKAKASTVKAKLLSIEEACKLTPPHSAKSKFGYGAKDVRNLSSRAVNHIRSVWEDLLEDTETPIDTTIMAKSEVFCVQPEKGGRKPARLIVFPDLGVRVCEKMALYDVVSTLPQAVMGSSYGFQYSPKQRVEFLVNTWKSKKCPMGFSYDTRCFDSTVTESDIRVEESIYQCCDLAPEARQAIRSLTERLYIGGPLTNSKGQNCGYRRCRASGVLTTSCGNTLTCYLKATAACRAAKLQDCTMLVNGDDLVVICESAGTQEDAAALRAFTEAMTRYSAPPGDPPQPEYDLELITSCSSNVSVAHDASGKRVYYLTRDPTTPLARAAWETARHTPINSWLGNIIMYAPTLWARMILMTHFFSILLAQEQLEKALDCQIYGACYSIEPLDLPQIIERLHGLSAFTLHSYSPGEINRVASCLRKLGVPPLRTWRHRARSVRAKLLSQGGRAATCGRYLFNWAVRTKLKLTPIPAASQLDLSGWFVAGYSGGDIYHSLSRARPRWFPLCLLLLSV

| Compound | EC50 [1, 3] [µM] | IC50 [2, 4] [µM] | EC50 [1, 5] [µM] | IC50 [2, 6] [µM] | further results |
| --- | --- | --- | --- | --- | --- |
| Cc1cc2c(cc1C)NC(c1ccc(Cl)cc1Cl)C1=C(CC(C)(C)CC1=O)N2 (stereo not shown) [compound 464, 11-(2,4-Dichlorophenyl)-2,3,4,5,10,11-hexahydro-3,3,7,8-tetramethyl-1H-dibenzo[b,e][1,4]diazepin-1-one] | 82.7 | > 133 | – | – | – |
| COc1ccc(C2CC(=O)C3=C(C2)Nc2ccccc2NC3c2ccccc2C(F)(F)F)cc1 (stereo not shown) [compound 324] | 18.5 | > 42.6 | – | – | – |
| O=C1CC(c2ccccc2)CC2=C1C(c1ccccc1C(F)(F)F)Nc1ccccc1N2 (stereo not shown) [compound 407] | 15.6 | > 33.3 | – | – | – |
| CC(=O)N1c2ccccc2NC2=C(C(=O)CC(C)(C)C2)C1c1ccc(N(C)C)cc1 (stereo not shown) [compound 122] | – | – | > 32 | > 42.7 | – |
| COc1ccc(OC)c(C2C3=C(CC(C)(C)CC3=O)Nc3ccccc3N2C(=O)c2ccccc2)c1 (stereo not shown) [compound 72] | – | – | 23.6 | > 42.7 | – |
| COc1ccc(C2C3=C(CC(c4ccc(C)cc4)CC3=O)Nc3ccccc3N2C(=O)c2ccccc2)cc1 (mixture of isomers) [compound 188] | – | – | – | – | EC50 [1, 7]: 5.16 µM; IC50 [2, 8]: > 33.3 µM |
| COc1ccc(OC)c(C2Nc3ccccc3NC3=C2C(=O)CC(c2ccc(OC)c(OC)c2)C3)c1 (stereo not shown) [compound 371] | 3.74 | > 42.7 | – | – | – |
| CCC(C)Oc1ccccc1C1C2=C(CC(C)(C)CC2=O)Nc2ccccc2N1C(=O)C(F)(F)F (stereo not shown) [compound 65] | – | – | 2.48 | > 42.7 | – |
| CCC(C)Oc1ccccc1C1C2=C(CC(c3ccc(OC)c(OC)c3)CC2=O)Nc2ccccc2N1C(=O)c1ccccc1 (stereo not shown) [compound 183] | – | – | 1.32 | > 42.7 | – |
| COc1ccc(C2CC(=O)C3=C(C2)Nc2ccccc2NC3c2ccccc2OC(C)C)cc1OC (stereo not shown) [compound 370] | 3.43 | > 42.7 | – | – | – |
| CCOc1ccccc1C1CC(=O)C2=C(C1)Nc1ccccc1N(C(=O)C(F)(F)F)C2c1ccc(OC)cc1 (stereo not shown) [compound 173] | – | – | – | – | EC50 [1, 7]: 0.208 µM; IC50 [2, 8]: > 42.7 µM |
| COc1ccc(C2CC(=O)C3=C(C2)Nc2ccccc2NC3c2cc(OC)c(OC)cc2OC)cc1OC (stereo not shown) [compound 403] | 7.12 | > 42.7 | – | – | – |
| CC(=O)N1c2ccccc2NC2=C(C(=O)CC(c3ccccc3OCc3ccccc3)C2)C1C(Br)=Cc1ccccc1 (stereo not shown) [compound 300] | – | – | – | – | EC50 [1, 7]: 0.706 µM; IC50 [2, 8]: > 133 µM |
| CN(C)c1ccc(C2C3=C(CC(C)(C)CC3=O)Nc3ccccc3N2C(=O)Cc2ccc(Cl)cc2)cc1 (stereo not shown) [compound 8] | – | – | 5.65 | > 42.7 | – |
| CC(=O)N1c2ccccc2NC2=C(C(=O)CC(c3ccccc3OCc3ccccc3)C2)C1c1cccc(OC(=O)c2ccc(Cl)cc2)c1 (single isomer, unassigned) [compound 191, 10-Acetyl-3-(2-benzyloxyphenyl)-11-[3-(4-chlorobenzoyloxy)phenyl]-2,3,4,5,10,11-hexahydro-dibenzo[b,e][1,4]diazepin-1-one] | – | – | 2.88 | > 42.7 | – |
| CC(C)C(=O)N1c2ccccc2NC2=C(C(=O)CC(C)(C)C2)C1c1cccs1 (stereo not shown) [compound 243] | – | – | 25.5 | > 33.3 | – |
| CC(=O)N1c2ccccc2NC2=C(C(=O)CC(c3ccccc3)C2)C1c1ccc(C)cc1 (mixture of isomers) [compound 199] | – | – | – | – | EC50 [1, 7]: 11.5 µM; IC50 [2, 8]: > 42.7 µM |
| CC(=O)N1c2ccccc2NC2=C(C(=O)CC(C)(C)C2)C1CC1CC=C(C)C1(C)C (stereo not shown) [compound 246] | – | – | 1.88 | > 42.7 | – |
| COc1cc2c(cc1OC)NC(c1ccc(Cl)cc1Cl)C1=C(CC(C)(C)CC1=O)N2 (stereo not shown) [compound 467, 7,8-dimethoxy-11-(2,4-dichlorophenyl)-3,3-dimethyl-2,3,4,5,10,11-hexahydro-1H-dibenzo[b,e][1,4]diazepin-1-one] | 30 | > 133 | – | – | – |
| COc1ccc(C2CC(=O)C3=C(C2)Nc2ccccc2NC3c2ccc(OC)cc2OC)cc1 (stereo not shown) [compound 372] | 1.94 | > 42.7 | – | – | – |
| CC1(C)CC(=O)C2=C(C1)Nc1ccccc1N(C(=O)C(F)(F)F)C2c1ccccc1Cl (stereo not shown) [compound 87] | – | – | > 32 | > 42.7 | – |
| CC1(C)CC(=O)C2=C(C1)Nc1ccccc1NC2c1cccc(OC(=O)c2ccc(Cl)cc2)c1 (stereo not shown) [compound 431, 11-[3-(4-Chlorobenzoyloxy)phenyl]-3,3-dimethyl-2,3,4,5,10,11-hexahydro-dibenzo[b,e][1,4]diazepin-1-one] | > 100 | 82.9 | – | – | – |
| CC1(C)CC(=O)C2=C(C1)Nc1ccccc1N(C(=O)Cc1ccccc1)C2c1cc2c(cc1Br)OCO2 (stereo not shown) [compound 268] | – | – | 9.04 | > 42.7 | – |
| CCOc1cc(C2Nc3ccccc3NC3=C2C(=O)CC(c2ccc(Cl)cc2)C3)cc(Br)c1O (stereo not shown) [compound 353] | 5.3 | > 42.7 | – | – | – |

| Compound | EC50 [1, 3] [µM] | IC50 [2, 4] [µM] | EC50 [1, 5] [µM] | IC50 [2, 6] [µM] | further results |
| --- | --- | --- | --- | --- | --- |
| CCCCC(=O)N1c2ccccc2NC2=C(C(=O)CC(C)(C)C2)C1c1ccc(OC)c(OC)c1 (stereo not shown) [compound 80] | – | – | 9.53 | > 33.3 | – |
| CC(=O)N1c2ccccc2NC2=C(C(=O)CC(C)(C)C2)C1c1ccc(OCc2ccncc2)cc1 (stereo not shown) [compound 145, 10-acetyl-3,3-dimethyl-11-[4-(4-pyridylmethoxy)phenyl]-2,3,4,5,10,11-hexahydro-1H-dibenzo[b,e][1,4]diazepin-1-one] | – | – | 5.92 | 23.1 | – |
| CCCCCC(=O)N1c2ccccc2NC2=C(C(=O)CC(c3ccco3)C2)C1c1ccc(Cl)cc1 (stereo not shown) [compound 289] | – | – | 15.4 | > 33.3 | – |
| CSc1ccc(C2Nc3ccccc3NC3=C2C(=O)CC(c2ccc(Cl)cc2)C3)cc1 (stereo not shown) [compound 382] | 16.7 | > 42.7 | – | – | – |
| O=C1CC(c2ccc(Cl)cc2)CC2=C1C(c1cccc(Cl)c1)Nc1ccccc1N2 (stereo not shown) [compound 350] | 5.21 | 25.1 | – | – | – |
| CC1(C)CC(=O)C2=C(C1)Nc1cc(Cl)c(Cl)cc1NC2c1ccc(Cl)cc1Cl (stereo not shown) [compound 465, 7,8-Dichloro-11-(2,4-dichlorophenyl)-2,3,4,5,10,11-hexahydro-3,3-dimethyl-1H-dibenzo[b,e][1,4]diazepin-1-one] | 3.84 | 60 | – | – | – |
| CCn1c2ccccc2c2cc(C3Nc4cc(C)c(C)cc4NC4=C3C(=O)CC(C)(C)C4)ccc21 (stereo not shown) [compound 504] | 17.1 | 39.1 | – | – | – |
| CC(C)C(=O)N1c2ccccc2NC2=C(C(=O)CC(C)(C)C2)C1c1ccc(Cl)cc1Cl (stereo not shown) [compound 28] | – | – | 5.52 | > 42.7 | – |
| CCCCCC(=O)N1c2ccccc2NC2=C(C(=O)CC(C)(C)C2)C1c1ccccc1OCc1ccccc1 (stereo not shown) [compound 6] | – | – | 7.32 | > 42.7 | – |
| COc1ccc(C2CC(=O)C3=C(C2)Nc2ccccc2NC3c2cc(Br)ccc2OC)cc1 (stereo not shown) [compound 335] | 11.9 | > 42.7 | – | – | – |
| CC1(C)CC(=O)C2=C(C1)Nc1ccccc1N(CC(=O)O)C2c1ccc(Cl)cc1Cl (stereo not shown) [compound 511] | > 100 | 1.9 | – | – | – |
| COc1ccc(C2CC(=O)C3=C(C2)Nc2ccccc2N(C(=O)c2ccccc2)C3c2ccc(C)cc2)cc1 (mixture of isomers) [compound 206] | – | – | – | – | EC50 [1, 7]: 10.9 µM; IC50 [2, 8]: > 33.3 µM |
| CCCOc1ccc(C2C3=C(CC(C)(C)CC3=O)Nc3ccccc3N2C(C)=O)cc1OC (stereo not shown) [compound 129] | – | – | > 32 | > 42.7 | – |
| COc1ccc(C2CC(=O)C3=C(C2)Nc2ccccc2NC3c2ccc(Cl)c([N+](=O)[O-])c2)cc1 (stereo not shown) [compound 389] | 5.58 | > 42.7 | – | – | – |
| CCCCCC(=O)N1c2ccccc2NC2=C(C(=O)CC(C)(C)C2)C1c1ccccc1OC(C)CC (stereo not shown) [compound 93] | – | – | 4.05 | > 42.7 | – |
| O=C1CC(c2ccc(Cl)cc2)CC2=C1C(c1ccccc1OCc1ccccc1)Nc1ccccc1N2 (stereo not shown) [compound 366] | 5.31 | > 42.7 | – | – | – |
| O=C1CC(c2ccc(Cl)cc2)CC2=C1C(c1cccc(Cl)c1)N(C(=O)C(F)(F)F)c1ccccc1N2 (mixture of isomers) [compound 208] | – | – | – | – | EC50 [1, 7]: 11.1 µM; IC50 [2, 8]: > 33.3 µM |
| CCCCOc1ccccc1C1Nc2ccccc2NC2=C1C(=O)CC(c1ccccc1)C2 (stereo not shown) [compound 338] | 16.9 | > 42.7 | – | – | – |
| O=C1CC(c2ccccc2OCc2ccccc2)CC2=C1C(c1cccc(OCc3ccccc3)c1)Nc1ccccc1N2 (single isomer, unassigned) [compound 418, 3-(2-Benzyloxyphenyl)-11-(3-benzyloxyphenyl)-2,3,4,5,10,11-hexahydro-dibenzo[b,e][1,4]diazepin-1-one] | – | – | – | – | EC50 ([1]; read-out: Replicon Assay EC50, Huh-Luc cells, incubation of three days, luciferase activity): 2.16 µM; IC50 ([2]; read-out: NS5B Polymerase Assay IC50): > 42.7 µM |
| COc1ccc(C2CC(=O)C3=C(C2)Nc2ccccc2NC3c2ccccc2C)cc1 (stereo not shown) [compound 381] | 4.77 | > 42.7 | – | – | – |
| CC1(C)CC(=O)C2=C(C1)Nc1ccccc1N(C(=O)c1ccccc1)C2c1ccc(Cl)cc1 (stereo not shown) [compound 88] | – | – | 6.1 | 18.5 | – |
| CC1(C)CC(=O)C2=C(C1)Nc1ccccc1NC2c1ccc([N+](=O)[O-])cc1 (stereo not shown) [compound 448] | > 100 | > 133 | – | – | – |
| CC(C)C(=O)N1c2ccccc2NC2=C(C(=O)CC(C)(C)C2)C1c1ccccc1F (stereo not shown) [compound 23] | – | – | 20.3 | > 42.7 | – |
